In ChEMBL document CHEMBL5316367, “Mass Spectrometry-Guided Discovery of Multi-N-Methylated Cyclodecapeptides Auyuittuqamides E-H from Sesquicillium sp. QL0466” (2023):
≈ marks a conversion by molar mass, not a printed value.

Columns and labels:
Format in all cases: functional
Enterococcus faecium [1] = experiment: Antimicrobial activity against vancomycin-sensitive Enterococcus faecium 160119481 assessed as inhibition of bacterial growth by microtiter plate reader assay
Staphylococcus aureus [2] = experiment: Antimicrobial activity against Staphylococcus aureus ATCC 6538 assessed as inhibition of bacterial growth by microtiter plate reader assay
Enterococcus faecium [3] = experiment: Antimicrobial activity against vancomycin-resistant Enterococcus faecium 151458137 assessed as inhibition of bacterial growth by microtiter plate reader assay
Escherichia coli = experiment: Antimicrobial activity against Escherichia coli ATCC 25922 assessed as inhibition of bacterial growth by microtiter plate reader assay
Staphylococcus aureus [4] = experiment: Antimicrobial activity against methicillin-resistant Staphylococcus aureus 11646 assessed as inhibition of bacterial growth by microtiter plate reader assay

| SMILES | MIC (Enterococcus faecium [1]) | MIC (Staphylococcus aureus [2]) | MIC (Enterococcus faecium [3]) | MIC (Escherichia coli) | MIC (Staphylococcus aureus [4]) |
| --- | --- | --- | --- | --- | --- |
| CC[C@H](C)[C@@H]1NC(=O)CNC(=O)[C@H](CC(C)C)N(C)C(=O)[C@H]([C@@H](C)CC)NC(=O)[C@H]([C@@H](C)O)N(C)C(=O)[C@H](Cc2ccccc2)NC(=O)CNC(=O)[C@@H](CC(C)C)N(C)C(=O)[C@H]([C@@H](C)CC)NC(=O)[C@H](CO)NC1=O | 8 µg/mL (≈ 7.57 µM) | 8 µg/mL (≈ 7.57 µM) | 8 µg/mL (≈ 7.57 µM) | > 128 µg/mL | > 128 µg/mL |
| CC[C@H](C)[C@@H]1NC(=O)[C@H]([C@@H](C)O)N(C)C(=O)[C@H](Cc2ccccc2)NC(=O)CNC(=O)[C@@H](CC(C)C)N(C)C(=O)[C@H](CC(C)C)NC(=O)[C@H](CO)NC(=O)[C@H](CC(C)C)NC(=O)CNC(=O)[C@H](CC(C)C)N(C)C1=O | 8 µg/mL (≈ 7.57 µM) | 8 µg/mL (≈ 7.57 µM) | 8 µg/mL (≈ 7.57 µM) | > 128 µg/mL | > 128 µg/mL |
| CC[C@H](C)[C@@H]1NC(=O)[C@H](CO)NC(=O)[C@H](CC(C)C)NC(=O)CNC(=O)[C@H](CC(C)C)N(C)C(=O)[C@H]([C@@H](C)CC)NC(=O)[C@H]([C@@H](C)O)N(C)C(=O)[C@H](Cc2ccccc2)NC(=O)CNC(=O)[C@@H](CC(C)C)N(C)C1=O | 8 µg/mL (≈ 7.57 µM) | 8 µg/mL (≈ 7.57 µM) | 8 µg/mL (≈ 7.57 µM) | > 128 µg/mL | > 128 µg/mL |
| CC[C@H](C)[C@@H]1NC(=O)CNC(=O)[C@H](CC(C)C)N(C)C(=O)[C@H]([C@@H](C)CC)NC(=O)[C@H]([C@@H](C)O)N(C)C(=O)[C@H](Cc2ccccc2)NC(=O)CNC(=O)[C@@H](CC(C)C)N(C)C(=O)[C@H](CC(C)C)NC(=O)[C@H](CO)NC1=O | 8 µg/mL (≈ 7.57 µM) | 8 µg/mL (≈ 7.57 µM) | 8 µg/mL (≈ 7.57 µM) | > 128 µg/mL | > 128 µg/mL |
| NC[C@H]1O[C@H](O[C@H]2[C@H](O)[C@@H](O[C@H]3O[C@H](CO)[C@@H](O)[C@H](N)[C@H]3O)[C@H](N)C[C@@H]2N)[C@H](N)[C@@H](O)[C@@H]1O [BEKANAMYCIN] |  |  |  | 32 µg/mL (≈ 66.2 µM) |  |
